Source: patent US10053477B2, “Spirocyclic aryl phosphorus oxide and aryl phosphorus sulfide” (QILU PHARMACEUTICAL CO., LTD., priority 2014, dated 2018)

Assays:
ALK L1196M = target: T1, ALK L1196M (Homo sapiens, UniProt Q9UM73, L1196M); experiment: ALK L1196M enzymatic inhibition (HTRF); type: biochemical; details: 30 μM ATP
T1 construct: purchased Carna Biosciences (Japan)
Procedure: (§1) Enzyme: ALK wild-type, ALK C1156Y and ALK L1196M supplied by Carna Biosciences (Japan), EGFR T790M/L858R supplied by Life technology (Madison, Wis.).
(§2) HTRF kit: supplied by Cis-Bio International, with Eu-marked TK1 antibody, XL665- and biotin-labelled TK1 polypeptide substrates.
Reaction buffer: 50 mM Hepes (pH7.5), 10 mM MgCl2, 0.01 mM NaV3VO4.
(§3) Incubation was carried out for 60 minutes at room temperature. Detection was by Envision.

ALK C1156Y = target: T2, ALK C1156Y (Homo sapiens, UniProt Q9UM73, C1156Y); experiment: ALK C1156Y enzymatic inhibition (HTRF); type: biochemical; details: 30 μM ATP
T2 construct: purchased Carna Biosciences (Japan)
Procedure: as §1, §2
Reaction buffer: 50 mM Hepes (pH7.5), 10 mM MgCl2, 0.01 mM NaV3VO4. […] Reaction was reacted at room temperature for 60 minutes.
as §3

[1] = tested on: LU-01-0319 Crizotinib resistance model; experiment: In vivo anti-tumor efficacy, Crizotinib resistant LU-01-0319 xenotransplantation (PDX) tumor; set-up: species or system BALB/c nude mice
Text: LU-01-0319 xenotransplantation tumor models initially obtained from clinical sample through surgical resection were implanted into nude mice, which was defined as a batch of P0 (LU-01-0319-P0). The next batch was defined as P1 (LU-01-0319-P1) which was implanted tumors from P0. FP3 was regained from P2, the next batch was defined as FP4 which was implanted tumors from FP3. […] The continuous increasing tumors were defined as LU-01-0319 antitumor models. BALB/c nude mice, female, 6 to 8 weeks, about 18 to 22 g bodyweight, 75 mice were used for study, supplied by Shanghai BK Laboratory Animal Co., LTD. Tumour biopsies (about 30 mm^3) of LU-01-0319R FP6 were implanted subcutaneously on right side of each mouse for growth of tumor. […] Dose of Crizotinib was appropriately varied depending on the tumor size. When average tumor volume reached about ˜500 mm^3, the assay began. Once a day the compounds to be tested were orally administered. Tumor size were measured twice a week with a caliper at two dimensions, and calculated with the following formula: V=0.5a×b2, where a and b are respectively long diameter and short diameter of the tumor. The antitumor efficacy was determined by dividing the average increased tumor volume in compound-treated animal by the average increased tumor volume in untreated animal.

EGFR T790M/L858R = target: T3, EGFR T790M/L858R (Homo sapiens, UniProt P00533, L858R/T790M); experiment: EGFR T790M/L858R enzymatic inhibition (HTRF); type: biochemical; details: 20 μM ATP
T3 construct: purchased Life technology (Madison, Wis.)
Outline: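 HTRF with 0.08 nM EGFR T790M/L858R, 1 μM biotin-TK1 peptide and 20 μM ATP in 50 mM Hepes pH 7.5, 10 mM MgCl2, 60 min at room temperature. Compound 11-point 3-fold series, final […] to 0.017 nM. Detection used Eu-anti-TK1 antibody (2 nM) plus XL665 (62.5 nM), 60 min.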

[2] = tested on: LU-01-0319 xenotransplantation (PDX) from lung cancer patients; experiment: In vivo efficacy, LU-01-0319 xenotransplantation (PDX) from lung cancer patients; set-up: species or system BALB/c nude mice; details: 10 mg/kg orally everyday
Text: BALB/c nude mice, female, 6 to 8 weeks, about 18 to 22 g bodyweight, was kept in a special environment without pathogens, and a single ventilated cage (5 mice per cage). Beddings and water in all the cages were disinfected before use. All the animal had free access to standard authorized commercially available lab diet. 80 mice were supplied by Shanghai BK Laboratory Animal Co., LTD for study. Each mouse was subcutaneously implanted tumor tissue (20-30 mm^3) at right flank for growth of tumor. When the average tumor volume reached about 250-300 mm^3, the assay started. Test compounds were delivered orally everyday, 10 mg/kg. Tumor size was measured with two-dimensional caliper every 3 days, size was recorded by mm^3, and calculated by the following formula: V=V=0.5a×b2, where a and b are respectively the long diameter and short diameter length of the tumor. The antitumor efficacy was determined by dividing the average increased tumor volume in compound-treated animal by the average increased tumor volume in untreated animal.

ALK wild-type = target: T4, ALK wild-type (Homo sapiens, UniProt Q9UM73); experiment: ALK wild-type enzymatic inhibition (HTRF); type: biochemical; details: 30 μM ATP
T4 construct: purchased Carna Biosciences (Japan)
Procedure: as §1, §2
10 μl wild-type ALK enzyme reaction mixture system: 0.5 nM wild-type ALK, 1 μM biotin-TK1 peptide, 30 μM ATP. Reaction buffer: 50 mM Hepes (pH7.5), 10 mM MgCl2, 0.01 mM NaV3VO4.
as §3

[3] = tested on: LU-01-0015 xenotransplantation (PDX) from lung cancer patients; experiment: In vivo efficacy, LU-01-0015 xenotransplantation (PDX) from lung cancer patients; set-up: species or system BALB/c nude mice; details: 25 mg/kg orally everyday
Outline: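 Female BALB/c nude mice carried subcutaneous LU-01-0015 lung cancer PDX fragments; dosing began at mean tumor volume of about 250–300 mm^3. Compounds were given orally at 25 mg/kg daily. Caliper volumes (0.5a×b²) were taken every 3 days; efficacy is the mean tumor volume increase in treated mice relative to untreated mice.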

T2 sequence (Q9UM73 19-1620 C1156Y): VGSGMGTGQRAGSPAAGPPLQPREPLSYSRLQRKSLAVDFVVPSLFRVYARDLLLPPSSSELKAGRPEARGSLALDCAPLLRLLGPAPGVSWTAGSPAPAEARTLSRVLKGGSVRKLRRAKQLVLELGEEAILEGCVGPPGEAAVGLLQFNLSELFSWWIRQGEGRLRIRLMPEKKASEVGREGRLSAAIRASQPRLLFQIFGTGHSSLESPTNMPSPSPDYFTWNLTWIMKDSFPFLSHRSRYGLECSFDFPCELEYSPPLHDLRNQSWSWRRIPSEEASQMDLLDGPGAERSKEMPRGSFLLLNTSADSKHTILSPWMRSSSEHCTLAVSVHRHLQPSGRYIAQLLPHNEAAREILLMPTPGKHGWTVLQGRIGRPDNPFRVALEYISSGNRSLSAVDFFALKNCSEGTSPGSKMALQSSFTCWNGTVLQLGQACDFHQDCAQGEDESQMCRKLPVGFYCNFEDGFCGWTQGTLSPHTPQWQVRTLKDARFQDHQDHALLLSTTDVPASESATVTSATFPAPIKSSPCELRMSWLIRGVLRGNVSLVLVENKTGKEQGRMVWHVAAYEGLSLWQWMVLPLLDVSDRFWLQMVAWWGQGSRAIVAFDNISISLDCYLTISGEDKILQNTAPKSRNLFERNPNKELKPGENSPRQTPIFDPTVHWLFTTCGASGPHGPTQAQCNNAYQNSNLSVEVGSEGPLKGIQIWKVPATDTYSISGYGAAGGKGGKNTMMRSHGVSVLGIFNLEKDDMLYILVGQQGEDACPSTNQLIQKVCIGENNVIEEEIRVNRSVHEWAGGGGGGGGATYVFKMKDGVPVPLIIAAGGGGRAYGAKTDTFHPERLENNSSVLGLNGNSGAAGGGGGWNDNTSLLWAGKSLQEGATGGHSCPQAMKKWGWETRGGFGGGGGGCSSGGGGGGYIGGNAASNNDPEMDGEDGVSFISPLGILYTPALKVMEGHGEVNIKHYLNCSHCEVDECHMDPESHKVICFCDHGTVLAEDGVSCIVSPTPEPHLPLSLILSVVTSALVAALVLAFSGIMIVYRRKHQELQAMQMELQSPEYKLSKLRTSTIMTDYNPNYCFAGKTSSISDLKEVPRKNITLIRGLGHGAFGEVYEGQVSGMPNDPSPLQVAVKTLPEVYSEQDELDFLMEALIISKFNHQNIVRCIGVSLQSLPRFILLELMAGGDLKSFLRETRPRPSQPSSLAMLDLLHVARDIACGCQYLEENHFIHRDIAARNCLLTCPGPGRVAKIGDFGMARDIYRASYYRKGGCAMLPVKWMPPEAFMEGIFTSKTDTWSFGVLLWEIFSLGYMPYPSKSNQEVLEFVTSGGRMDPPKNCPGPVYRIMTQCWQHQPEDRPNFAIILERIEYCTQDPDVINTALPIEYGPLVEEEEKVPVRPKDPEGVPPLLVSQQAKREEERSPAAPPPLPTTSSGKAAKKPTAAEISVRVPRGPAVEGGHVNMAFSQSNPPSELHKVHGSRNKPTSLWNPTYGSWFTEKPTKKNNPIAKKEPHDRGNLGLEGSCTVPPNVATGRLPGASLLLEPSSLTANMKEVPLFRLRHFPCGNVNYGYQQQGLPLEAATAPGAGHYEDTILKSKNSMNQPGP
T3 sequence (P00533 25-1210 T790M/L858R): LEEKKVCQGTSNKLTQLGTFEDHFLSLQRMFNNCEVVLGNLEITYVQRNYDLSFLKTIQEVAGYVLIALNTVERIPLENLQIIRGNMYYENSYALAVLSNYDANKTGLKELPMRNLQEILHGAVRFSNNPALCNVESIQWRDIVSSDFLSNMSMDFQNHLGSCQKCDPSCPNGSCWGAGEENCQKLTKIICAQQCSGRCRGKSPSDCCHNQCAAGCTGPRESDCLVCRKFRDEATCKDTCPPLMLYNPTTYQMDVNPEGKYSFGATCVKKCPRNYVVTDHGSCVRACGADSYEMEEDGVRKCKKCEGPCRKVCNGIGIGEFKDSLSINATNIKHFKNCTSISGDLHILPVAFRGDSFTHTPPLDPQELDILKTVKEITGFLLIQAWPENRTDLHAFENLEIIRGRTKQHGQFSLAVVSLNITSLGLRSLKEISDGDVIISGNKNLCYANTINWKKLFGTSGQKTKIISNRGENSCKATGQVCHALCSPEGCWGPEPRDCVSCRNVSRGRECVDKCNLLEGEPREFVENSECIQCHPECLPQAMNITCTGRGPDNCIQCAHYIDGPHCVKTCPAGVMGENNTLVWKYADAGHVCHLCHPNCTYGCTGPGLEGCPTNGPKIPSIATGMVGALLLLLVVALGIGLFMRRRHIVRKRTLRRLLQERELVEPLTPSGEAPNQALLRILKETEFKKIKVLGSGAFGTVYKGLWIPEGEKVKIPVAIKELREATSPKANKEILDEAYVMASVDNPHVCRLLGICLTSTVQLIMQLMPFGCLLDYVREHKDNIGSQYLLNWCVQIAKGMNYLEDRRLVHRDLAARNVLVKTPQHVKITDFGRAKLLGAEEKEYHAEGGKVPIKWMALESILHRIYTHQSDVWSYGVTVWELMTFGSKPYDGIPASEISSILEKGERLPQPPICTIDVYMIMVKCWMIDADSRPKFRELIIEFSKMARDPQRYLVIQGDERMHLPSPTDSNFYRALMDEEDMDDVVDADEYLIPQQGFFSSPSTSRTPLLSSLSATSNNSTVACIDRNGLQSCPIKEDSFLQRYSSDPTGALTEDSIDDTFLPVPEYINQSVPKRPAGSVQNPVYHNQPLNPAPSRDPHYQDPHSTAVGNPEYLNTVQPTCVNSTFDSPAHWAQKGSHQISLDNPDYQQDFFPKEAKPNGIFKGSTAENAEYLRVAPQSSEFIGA
T1 sequence (Q9UM73 19-1620 L1196M): as the sequence (Q9UM73 19-1620 C1156Y) above, with Y1138C, L1178M counted along it
T4 sequence (Q9UM73 19-1620): as the sequence (Q9UM73 19-1620 C1156Y) above, with Y1138C counted along it

## COc1cc(N2CCC3(CCN(C)CC3)CC2)ccc1Nc1ncc(Cl)c(Nc2ccccc2P(C)(C)=O)n1 [Compound 9, (2-((5-Chloro-2-((2-methoxy-4-(9-methyl-3,9-diazaspiro[5.5]undecan-3-yl)phenyl)amino)pyrimidin-4-yl)amino)phenyl)dimethyl phosphine oxide]
ALK L1196M
  IC50: 1 to 100 nM
ALK C1156Y
  IC50: 1 to 100 nM
[1]; 0 day, dosage 3 mg/Kg orally once a day
  Tumor volume: 502 mm^3
[1]; 0 day, dosage 10 mg/Kg orally once a day
  Tumor volume: 502 mm^3
[1]; 3 days, dosage 3 mg/Kg orally once a day
  Tumor volume: 722 mm^3
[1]; 3 days, dosage 10 mg/Kg orally once a day
  Tumor volume: 557 mm^3
[1]; 7 days, dosage 3 mg/Kg orally once a day
  Tumor volume: 859 mm^3
[1]; 7 days, dosage 10 mg/Kg orally once a day
  Tumor volume: 416 mm^3
[1]; 10 days, dosage 3 mg/Kg orally once a day
  Tumor volume: 1101 mm^3
[1]; 10 days, dosage 10 mg/Kg orally once a day
  Tumor volume: 261 mm^3
[1]; 13 days, dosage 3 mg/Kg orally once a day
  Tumor volume: 1218 mm^3
[1]; 13 days, dosage 10 mg/Kg orally once a day
  Tumor volume: 196 mm^3
[1]; 17 days, dosage 3 mg/Kg orally once a day
  Tumor volume: 1441 mm^3
[1]; 17 days, dosage 10 mg/Kg orally once a day
  Tumor volume: 133 mm^3
[1]; 19 days, dosage 3 mg/Kg orally once a day
  Tumor volume: 1521 mm^3
[1]; 19 days, dosage 10 mg/Kg orally once a day
  Tumor volume: 102 mm^3
EGFR T790M/L858R
  IC50: 1 to 100 nM
[2]; 0 days
  Tumor volume: 371 mm^3
[2]; 2 days
  Tumor volume: 359 mm^3
[2]; 6 days
  Tumor volume: 369 mm^3
[2]; 9 days
  Tumor volume: 301 mm^3
[2]; 13 days
  Tumor volume: 305 mm^3
[2]; 16 days
  Tumor volume: 291 mm^3
[2]; 20 days
  Tumor volume: 203 mm^3
[2]; 23 days
  Tumor volume: 172 mm^3
ALK wild-type
  IC50: 1 to 100 nM
[3]; 3 days
  Tumor volume: 158 mm^3
[3]; 6 days
  Tumor volume: 108 mm^3
[3]; 9 days
  Tumor volume: 82 mm^3
[3]; 12 days
  Tumor volume: 58 mm^3
[3]; 16 days
  Tumor volume: 48 mm^3
[3]; 19 days
  Tumor volume: 46 mm^3
[3]; 23 days
  Tumor volume: 43 mm^3
